Holding throughout (assay): NCI anticancer screen, dose series, 48 h
Assay [1] relates to TK-10 renal.
For assay [2], the system named is MCF7 breast.
Assay [3] deals with U251 CNS.
Assay [4] has as its system RXF 393 renal.
Assay [5] has as its system OVCAR-8 ovarian.
The test system of assay [6] is OVCAR-5 ovarian.
In assay [7] the test system is SK-MEL-2 melanoma.
Assay [8] concerns M14 melanoma.
Assay [9] concerns OVCAR-4 ovarian.
The subject of assay [10] is UACC-62 melanoma.

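Tested at 5 concentrations; 48 h exposure; 96-well plates; endpoints linearly interpolated, else capped at highest concentration. GI50 is the concentration that inhibits growth by half. Definition used: TGI = concentration required for complete inhibition of growth.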

`N=C(N)SCCN1CCCCC1`: the TGI is above 100 µM in assay [1]; 34.3 µM in assay [2]; 44 µM in [3]; 32.6 µM in [4]; above 100 µM in assay [5]; above 100 µM in assay [6]. Moreover, the TGI in assay [7] is 17 µM; in assay [8], 50.3 µM; in assay [9] it was above 100 µM; in assay [10], 55.2 µM.

Take `O=S(=O)([O-])[O-].[Fe+2].[OH2+]c1c(Cl)cc(Cl)cc1/C=N/Nc1ccccn1`: the GI50 in assay [1] is 1.01 µM. The TGI in [1] was 2.33 µM; in assay [3], 2.74 µM; in assay [4], 1.9 µM; in assay [5] it was 2.94 µM; in assay [6], 5.97 µM; in assay [8], 7.44 µM. The TGI in [10] is 3.38 µM.

Consider `C[N+]1(c2ccccc2)C=C(c2ccccc2)SC1=S` (stereo not drawn), for which the TGI in [1], in assay [2], in assay [3], in assay [4], in assay [5] and in [6] was above 100 µM each time. For the same compound, the TGI in [7], in assay [8] and in [10] was above 100 µM each time.

Regarding `Nc1ccc(S(=O)(=O)NCCS(=O)(=O)O)cc1`, the TGI in assay [1], in assay [3], in assay [4], in assay [5], in assay [6] and in [7] was above 100 µM each time. In addition, the TGI in assay [8], in [9] and in assay [10] was above 100 µM throughout.

`O=C(/C=C/c1ccc(O)cc1)c1cc(-c2cc(CCC(=O)c3ccc(O)cc3O)ccc2O)c(O)cc1O`: the TGI in assay [1], in assay [2], in [3], in assay [4], in [5] and in [6] was above 50 µM throughout. Further, the TGI in [7], in [8], in [9] and in [10] was above 50 µM in each case.

As for `Cc1ncc(COP(=O)(O)O)c(C)c1O`, the TGI in assay [1], in [3], in [4], in assay [5], in assay [6] and in [7] was above 100 µM throughout. Besides, the TGI in [8], in assay [9] and in [10] was above 100 µM in each case.

In the case of `COc1ccc(OC)c([N+](=O)[O-])c1-c1nc2sc(C)c(C)n2c1/C=N/N=C(N)N`, the TGI in assay [1] is above 100 µM; in [2] it was 79.5 µM; in assay [3], above 100 µM; in assay [4] it was above 100 µM; in [5] it was above 100 µM; in assay [6] it was above 100 µM. Further, the TGI is 40.5 µM in assay [7], above 100 µM in assay [8], above 100 µM in assay [9] and above 100 µM in [10].

As for `COc1cc(O)c2c(=O)c(OC)c(-c3ccc(OC)c(OC)c3)oc2c1.[Zn+2]`, the TGI is above 100 µM in assay [1]; above 100 µM in assay [2]; 45.6 µM in assay [4]; above 100 µM in assay [5]; above 100 µM in assay [6]; above 100 µM in assay [8]. In addition, the values for the TGI in assay [9] and in [10] were 32.2 µM and above 100 µM, respectively. For the same compound, the GI50 in [2] is 92.3 µM; in [5] it was 13.2 µM; in assay [6], above 100 µM; in [8], 45.4 µM; in assay [9], 4.19 µM; in assay [10], 11.7 µM.

Take `CCCCCCCCc1ccc(CCC(N)(CO)CO)cc1`: the GI50 was 1.89 µM in [1]; 1.67 µM in [2]; 1.8 µM in assay [3]; 1.52 µM in [4]; 1.64 µM in assay [6]; 2.06 µM in assay [7]. For the same compound, in assay [10], the GI50 was 1.72 µM. In addition, the TGI in assay [1] was determined as 3.58 µM; in assay [2], 3.07 µM; in [3], 3.32 µM; in assay [4] it was 2.85 µM; in [6], 3.08 µM; in assay [7] it was 3.76 µM. The TGI in assay [10] was determined as 3.31 µM.

Regarding `C=C(C[C@@H](O)[C@H](C)NC(=O)OCc1ccccc1)C(=O)OC(C)(C)C`, the TGI in assay [1], in assay [2], in assay [3], in [5], in assay [6] and in assay [7] was above 100 µM each time. The TGI in assay [8], in [9] and in assay [10] was above 100 µM each time.

Take `CCOc1ccc(N=Nc2ccc(-c3ccc(N=Nc4c(O)ccc5cc(S(=O)(=O)O)cc(S(=O)(=O)O)c45)cc3)cc2)cc1`: the TGI in assay [1], in assay [2], in [3], in assay [4], in assay [5] and in assay [6] was above 100 µM in each case. Also, the TGI in [7], in [8], in assay [9] and in assay [10] was above 100 µM throughout.

With `O=C1O/C(=C\C=C\CO)C=C1/C=C/CO`, the TGI in assay [1] is 41 µM; in assay [2], above 100 µM; in assay [3], above 100 µM; in assay [4], 38.3 µM; in assay [5], 38.6 µM; in assay [6], 41.7 µM. Moreover, the TGI is 43.4 µM in assay [7], 43.1 µM in assay [8], above 100 µM in [9] and 39.8 µM in assay [10].

For the compound `Cc1cccc(/C=C2/C(=O)Nc3ccccc32)n1`, the TGI was 33.7 µM in [1]; 30.3 µM in assay [2]; above 65.9 µM in assay [3]; 27.2 µM in assay [4]; above 80.3 µM in assay [5]; 27 µM in [6]. Also, the TGI was 36.4 µM in [7], 31.2 µM in [8], 56.7 µM in assay [9] and 25.8 µM in assay [10]. Besides, in assay [10], the GI50 was 10.2 µM.

Regarding `CC(=O)Oc1cc(/C=C/c2ccc(O)cc2)cc(OC(C)=O)c1`, the TGI in assay [1], in assay [2], in assay [3], in [4], in assay [5] and in [6] was above 100 µM each time. Further, the TGI was above 100 µM in [7], above 100 µM in [8], above 100 µM in assay [9] and 67.3 µM in assay [10].

Turning to `CC(=O)[C@]12OC(=O)C3=C1[C@H](CC[C@@H]3C)[C@@H](C)C[C@H]2C=C(C)C`, the TGI came out at 17.2 µM in [2]; 14.9 µM in [3]; 17 µM in [5]; 15.2 µM in assay [6]; 14.7 µM in assay [7]; 16.7 µM in assay [8]. Besides, in assay [10], the TGI is 12.6 µM.

Take `NC(=S)N/N=C1\CC(c2ccccc2)Nc2ccccc21` (stereo not drawn): the TGI in assay [1], in [3], in assay [5], in [8] and in [10] was above 100 µM throughout.

As to `CC(=O)c1c(C)cc2cccc(OC3OC(CO)C(O)C(O)C3O)c2c1O` (stereo not drawn) (tested in a mixture with another compound), the TGI in assay [1], in assay [2], in [3], in assay [4], in assay [5] and in assay [6] was above 100 µM throughout. Further, the TGI in assay [7], in assay [8], in assay [9] and in [10] was above 100 µM throughout.

On to `C[N+]1(C)C/C(=C\c2ccc(O)cc2)C(=O)/C(=C/c2ccc(O)cc2)C1`, for which the TGI in assay [1], in [3], in assay [4], in [5], in assay [6] and in assay [8] was above 100 µM each time. Moreover, the TGI in assay [9] and in [10] was above 100 µM each time.

Values taken from PubChem BioAssay (NCI).
